How the values were obtained:
[1] = tested on: cancer-related stem cells; assay: MTT cell viability after chemical treatment, cancer-related stem cells vs non-cancer-related stem cells; format: cell-based, human; settings: MTT survival fraction; p<0.01
Experimental: Cells were seeded on 24-well plates at a density of 2×10^4 cells/well in medium, after post-chemical therapy 24 hours, then followed and analyzed by the MTT assay (Sigma-Aldrich Co.). The amount of MTT formazon product was determined by measuring the absorbance at 560 nm (SpectraMax 250, Molecular Devices, Sunnyvale, Calif., USA). The drugs for chemotherapy are consisted of visplatin, VP-16, doxorubicin, or paclitaxel.

AT/RT-CD133+ cells [2] = assay: MTT assay of cell viability/proliferation in AT/RT-CD133+; format: cell-based, human; set-up: anti-cancer proliferation effect of single agent chemotherapy with addition of RV: dose or concentration left out as unconfirmed; settings: for resistance of CD133+ to chemotherapeutic agent compared with CD133-: AT/RT cells, p<0.01
Experimental: (§1) This research followed the tenets of the Declaration of Helsinki and all samples were obtained after patients had given informed consent. Dissociated cells from the samples of brain tumors from AT/RT patients were labeled with 1 ml CD133/1 micromagnetic beads per million cells using a CD133 cell isolation kit (MACS, Miltenyi Biotec). CD133^+ cells were cultured in serum-free DMEM/F12 (GIBCO) medium supplemented with N2 supplement (R&D), 10 ng/ml human recombinant bFGF (R&D) and 10 ng/ml EGF. Gamma radiation was delivered by a Theratronic cobalt unit T-1000 (Theratronic Internation, Inc., Ottawa, Canada) at a dose rate of 1.1 Gy/min (SSD=57.5 cm). For evaluation of cell proliferation, cells were seeded on 24-well plates at a density of 2×10^4 cells/well in medium, followed by the methyl thiazol tetrazolium assay (MTT assay; Sigma-Aldrich Co.). The amount of MTT formazan product was determined using a microplate reader and an absorbance of 560 nm (SpectraMax 250, Molecular Devices, Sunnyvale, Calif., USA).

AT/RT CD133- cells = assay: MTT assay of proliferation in AT/RT CD133-; format: cell-based, human; set-up: dose or concentration left out as unconfirmed; settings: RV for 72 h
Experimental: as §1

[3] = tested on: AT/RT-CD133+ xenotransplant; assay: Xenotransplanted tumorigenicity analysis of AT/RT cells in SCID mice; format: in vivo, SCID mice (BALB/c strain)
Experimental: All procedures involving animals were in accordance with the institutional animal welfare guideline of Taipei Veterans General Hospital. […] Tumor size was measured using calipers and the volume was calculated according to the formula: (length×width^2)/2 and then analyzed using Image Pro-plus software.

ATRT-CD133+ cells = assay: Percentage of CD133-positive cells in ATRT-CD133+; format: cell-based, human; set-up: dose or concentration left out as unconfirmed; settings: RV for 3 days
AT/RT-CD133+ cells [4] = assay: Transwell migration/invasion and soft agar colony formation, AT/RT-CD133+; format: cell-based, human; set-up: migration/invasion: dose or concentration left out as unconfirmed; settings: compared with IR treatment alone
Experimental: (§2) The 24-well plate Transwell® system with a polycarbonate filter membrane of 8-μm pore size (Corning, United Kingdom) was used. Cell suspensions were seeded in the upper compartment of the Transwell® chamber at a density of 1×10^5 cells in 100 μl serum-free medium. After 24 hours, the filter membrane was fixed in 4% formalin for 1 hour. The opposite surface of the filter membrane was stained with Hoechst 33342 for 3 min. The soft agar assay was performed as follows. The bottom of each well (35 mm) of a six-well culture dish was coated with 2 ml agar mixture (DMEM, 10% (v/v) FCS, 0.6% (w/v) agar). After the bottom layer solidified, 2 ml top agar-medium mixture (DMEM, 10% (v/v) FCS, 0.3% (w/v) agar) containing 2×10^4 cells was added, and dishes were incubated at 37° C. for 4 weeks. The plates were stained with 0.5 ml 0.005% Crystal Violet for 1 hour, and then the number of colonies was counted using a microscope.

AT/RT-CD133+/- cells = assay: Apoptosis (annexin V, caspase 3, TUNEL) in AT/RT-CD133+/-; format: cell-based, human; set-up: apoptosis induction: dose or concentration left out as unconfirmed
Experimental: The activities of caspases-8 and -3 were determined by ELISA kit (Medical & Biological Laboratories Co., Ltd, Nagoya, Japan) and quantified by reading at 490 nm (MRX; Dynatech Laboratories, Chantilly, Va., U.S.A.). Each individual sample was analyzed in triplicate. Furthermore, apoptotic cells were identified by the terminal dUTP nick-end labeling (TUNEL) method (In situ Cell Death Detection Kit, POD, Roche Boehringer Mannheim Corp., Ind., U.S.A.). Briefly, cells with cover slips were washed with 1× phosphate-buffered saline (PBS), fixed with 4% of paraformaldehyde for 10 min, permeabilized with 0.1% of Triton X-100 for 5 min, and incubated with the TUNEL reagent provided for 1 h. Chromogenic development was then applied using 3-amino-9-ethyl-carbazole, and slides were counterstained using H&E.

[5] = tested on: MB-CSCs (medulloblastoma cancer stem-like cells); assay: MTT assay of cell viability in MB-CSCs; format: cell-based, human
Experimental: Dissociated cells from the samples of medulloblastoma patients were cultured in serum-free DMEM/F12 (GIBCO) medium supplemented with N2 supplement (R&D), 10 ng/ml human recombinant bFGF (R&D) and 10 ng/ml EGF. Gamma radiation was delivered by a Theratronic cobalt unit T-1000 (Theratronic Internation, Inc., Ottawa, Canada) at a dose rate of 1.1 Gy/min (SSD=57.5 cm). For evaluation of cell proliferation, cells were seeded on 24-well plates at a density of 2×10^4 cells/well in medium, followed by the methyl thiazol tetrazolium assay (MTT assay; Sigma-Aldrich Co.).

parental MB cells = assay: MTT assay of cell viability in parental MB cells; format: cell-based, human; settings: 50 μM RV, serum-condition culture
Experimental: Gamma radiation was delivered by a Theratronic cobalt unit T-1000 (Theratronic Internation, Inc., Ottawa, Canada) at a dose rate of 1.1 Gy/min (SSD=57.5 cm). For evaluation of cell proliferation, cells were seeded on 24-well plates at a density of 2×10^4 cells/well in medium, followed by the methyl thiazol tetrazolium assay (MTT assay; Sigma-Aldrich Co.).

MB-CSCs = assay: Migration/invasion and tumor colony formation, MB-CSCs; format: cell-based, human; settings: 100 μM RV alone or combined with 2 Gy IR, compared with IR (2 Gy) alone
Experimental: as §2

iPS and ES cells = assay: Osteogenic differentiation of iPS and ES cells (Alizarin red, real-time RT-PCR); format: cell-based
Experimental: For osteogenic induction, ES or iPS cells were cultured in DMEM-LG (Invitrogen) supplemented with 50 μg·ml^−1 ascorbate-2 phosphate, 10 nmol·L^−1 dexamethasone, and 10 mmol·L^−1 β-glycerophosphate (Sigma, St. Louis, Mo.) for 2 weeks. At the end of osteogenic induction, cells were washed twice with PBS, fixed for 10 min at room temperature with 3.7% paraformaldehyde, and stained with von Kossa stain and Alizarin red to assess osteogenic differentiation.
Real-time RT-PCR was performed as previously described. Briefly, total RNA (1 μg) of each sample was reverse-transcribed using 0.5 μg oligo dT and 200 U Superscript II RT (Invitrogen). The amplification was carried out in a total volume of 20 μl containing 0.5 μmol·L^−1 of each primer, 4 mmol·L^−1 MgCl2, 2 μl LightCycler™-FastStart DNA Master SYBR green I (Roche Molecular Systems, Alameda, Calif.) and 2 μl of 1:10 diluted cDNA. PCR reactions were prepared in duplicate and performed using the following program: 95° C. for 10 min, followed by 40 cycles of denaturation at 95° C. for 10 sec. annealing at 55° C. for 5 sec. and extension at 72° C. for 20 sec. Standard curves (cycle threshold values versus template concentration) were prepared for each target gene and for the endogenous reference gene (GAPDH) for each sample. Quantification of unknown samples was performed using LightCycler Relative Quantification Software version 3.3 (Roche).

transplanted iPS cells = assay: In vivo osteogenic differentiation and teratoma formation of iPS cells transplanted to nude mice; set-up: species or system nude mice (BALB/c strain)

COc1cccc2c1C(=O)c1c(O)c3c(c(O)c1C2=O)C[C@@](O)(C(=O)CO)C[C@@H]3O[C@H]1C[C@H](N)[C@H](O)[C@H](C)O1 [doxorubicin]
resistance of cancer-related stem cell to chemotherapeutic agent compared with non-cancer-related stem cell [1]: significantly resistant | resistance of CD133+ to chemotherapeutic agent compared with CD133- (AT/RT-CD133+ cells [2]): significantly resistant

N.N.[Cl][Pt][Cl] [cisplatin]
resistance of cancer-related stem cell to chemotherapeutic agent compared with non-cancer-related stem cell [1]: significantly resistant | resistance of CD133+ to chemotherapeutic agent compared with CD133- (AT/RT-CD133+ cells [2]): significantly resistant

CC(=O)O[C@H]1C(=O)[C@@]2(C)[C@H]([C@H](OC(=O)c3ccccc3)[C@]3(O)C[C@H](OC(=O)[C@H](O)[C@@H](NC(=O)c4ccccc4)c4ccccc4)C(C)=C1C3(C)C)[C@]1(OC(C)=O)CO[C@@H]1C[C@@H]2O [paclitaxel]
resistance of cancer-related stem cell to chemotherapeutic agent compared with non-cancer-related stem cell [1]: significantly resistant

COc1cc([C@@H]2c3cc4c(cc3[C@@H](O[C@@H]3O[C@@H]5CO[C@@H](C)O[C@H]5[C@H](O)[C@H]3O)[C@H]3COC(=O)[C@H]23)OCO4)cc(OC)c1O [VP16, etoposide]
resistance of cancer-related stem cell to chemotherapeutic agent compared with non-cancer-related stem cell [1]: significantly resistant | resistance of CD133+ to chemotherapeutic agent compared with CD133- (AT/RT-CD133+ cells [2]): significantly resistant

Oc1ccc(/C=C/c2cc(O)cc(O)c2)cc1 [resveratrol, 3,4′,5-tri-hydroxy-trans-stilbene]
total number and growth rates of CD133+ (AT/RT-CD133+ cells [2]; 200 mM RV for 48 and 72 h): significantly decreased | morphology of spheroidlike CD133+ (AT/RT-CD133+ cells [2]; 200 mM RV, 48 h): detached from clusters and became a single suspension | reduction of viability of CD133+ (AT/RT-CD133+ cells [2]; RV 100 mM): 20-25% | anti-cancer proliferation effect of single agent chemotherapy with addition of RV (AT/RT-CD133+ cells [2]; RV added to cisplatin, VP-16, ATRT-CD133+/-): significantly improved | reduction of viability of CD133+ (AT/RT-CD133+ cells [2]; RV for 72 h): about 40% | cell viability (AT/RT-CD133+ cells [2]; RV lower than 50 mM, 24, 48, and 72 h, p>0.05): not significantly affected | proliferation and growth of CD133- (AT/RT CD133- cells): totally block | tumor formation in transplanted SCID mice ([3]; 1,000 AT/RT-CD133+ treated with 200 mM RV for 72 h, within 6 weeks after inoculation): did not form tumors | mean survival times (Kaplan-Meier) ([3]; CD133+ and 150 mM RV/IR vs untreated or only IR-treated CD133+, p<0.01): significantly prolonged | tumor volumes ([3]; CD133+ treated by RV/IR vs CD133+ or CD133+ treated with only IR, p<0.01): significantly decreased | tumor formation ([3]; RV-treated CD133- group): no tumor formation | percentage of CD133-positive cells in ATRT-CD133+ (ATRT-CD133+ cells): decrease | tumor colony formation (AT/RT-CD133+ cells [4]; 150 mM RV alone or combined with IR): significantly inhibited | migration/invasion (AT/RT-CD133+ cells [4]; RV alone or combined with IR): significantly inhibited | IR (2 Gy)-mediated apoptotic activity (AT/RT-CD133+/- cells; RV plus IR 2 Gy, TUNEL): increase | apoptosis induction (AT/RT-CD133+/- cells; RV, 72 h, annexin V, caspase 3, TUNEL): induce apoptosis | morphology of spheroid-like MB-CSCs ([5]; 100 μM RV, 48 hours): detached and became a single-suspension | treatment effect of IR-2 Gy on MB-CSCs with addition of RV ([5]; 100 μM RV, p<0.01): significantly improved | total cell number and growth rates of MB-CSCs ([5]; 150 μM RV for 48 h, p<0.001): significantly decreased | reduction of viability of MB-CSCs ([5]; RV 100 μM): 40-45% | cell viability of MB-CSC ([5]; RV lower than 50 μM, 48 hours, p>0.05): not significantly affected | cell viability of parental MB cells (parental MB cells): moderately affected | migration/invasion (MB-CSCs): significantly inhibited | tumor colony formation (MB-CSCs): significantly inhibited | calcium accumulation / mineralization (Alizarin red staining) (iPS and ES cells; 20 μmol·L^−1 resveratrol in osteogenic medium, 14 days): significantly increased | expression of Runx2, OPN and IBSP (iPS and ES cells; 20 μmol·L^−1 resveratrol, 7 or 14 days of induction, vs without resveratrol): significantly higher | expression of Oct-4, Nanog, Klf-4, and C-Myc in grafts (quantitative RT-PCR) (transplanted iPS cells; osteogenic medium-treated iPS cells, mice fed with resveratrol, six weeks): significantly suppressed | teratoma-like formation in grafts (transplanted iPS cells; osteogenic medium-treated iPS cells, resveratrol 7.5 μg/ml in drinking water, six weeks): No teratoma-like formation | expression of OPN in grafts (immunofluorescence) (transplanted iPS cells; resveratrol 7.5 μg/ml in drinking water daily, six weeks after transplantation, vs vehicle): significantly higher

Source: patent US8183297B2 (Taipei Veterans General Hospital, priority 2008, dated 2012)
